Here are results for 5 compounds from PubChem BioAssay (NCI).

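Tested at 5 concentrations; 48 h exposure; 96-well plates; endpoints linearly interpolated, else capped at highest concentration. GI50 marks 50% less growth. At the TGI there is no net growth.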 A value given as a limit tells only on which side of the number the result lay.

Among the test systems are SK-MEL-28 melanoma; COLO 205 colon; A498 renal; CCRF-CEM leukemia; HCT-15 colon; NCI-H522 lung; UO-31 renal; K-562 leukemia; SNB-19 CNS; MOLT-4 leukemia.
What all share (assay): NCI anticancer screen, dose series, 48 h

For the compound `CCCCCn1sc(=O)n(Cc2ccc(CNC(=O)C(C)c3ccc(CC(C)C)cc3)cc2)c1=O` (centres undefined), the GI50 in the test with SK-MEL-28 melanoma was 1.43 µM; in the test with COLO 205 colon, 0.598 µM; in the test with A498 renal, 1.46 µM; in the test on CCRF-CEM leukemia it was 0.337 µM; in the test on HCT-15 colon, 0.424 µM; with NCI-H522 lung, 0.162 µM. Also, the GI50 was 0.561 µM in the test on UO-31 renal, 0.602 µM in the test on K-562 leukemia, 1.55 µM with SNB-19 CNS and 0.848 µM with MOLT-4 leukemia. The TGI came to 2.75 µM with SK-MEL-28 melanoma; 2.08 µM in the test on COLO 205 colon; 2.81 µM with A498 renal; 1.62 µM with HCT-15 colon; 2.11 µM in the test with NCI-H522 lung; 1.99 µM in the test with UO-31 renal. Further, the TGI in the test on K-562 leukemia is over 61.1 µM; with SNB-19 CNS, 2.91 µM; in the test on MOLT-4 leukemia, over 22.5 µM.

With `Cc1cnc(C(=O)Nc2nc3ccc(S(=O)(=O)Nc4ccc(C(C)(C)C)cc4)cc3[nH]2)cn1`, the GI50 is 1.17 µM in the test on SK-MEL-28 melanoma; 0.503 µM in the test with COLO 205 colon; 0.288 µM in the test on A498 renal; 0.415 µM with CCRF-CEM leukemia; 0.304 µM in the test with HCT-15 colon; 0.356 µM in the test with NCI-H522 lung. Also, the GI50 with UO-31 renal was 0.583 µM; in the test with K-562 leukemia it was 0.314 µM; in the test with SNB-19 CNS, 0.591 µM; in the test on MOLT-4 leukemia, 0.562 µM. In addition, the TGI is 14 µM in the test on SK-MEL-28 melanoma; 7.74 µM with COLO 205 colon; 1.31 µM with A498 renal; 14.5 µM in the test with CCRF-CEM leukemia; 3.09 µM with HCT-15 colon; 8.9 µM in the test with NCI-H522 lung. Besides, the TGI was determined as 19.4 µM in the test on UO-31 renal, 5.71 µM with K-562 leukemia, 13.7 µM in the test with SNB-19 CNS and 5.9 µM with MOLT-4 leukemia.

For the compound `CNC(=O)c1sc(-n2cnc3cc(OC)c(OC)cc32)cc1OCc1ccccc1C(F)(F)F`, the GI50 in the test with SK-MEL-28 melanoma is over 25 µM; in the test on COLO 205 colon, over 25 µM; in the test on A498 renal it was 1.39 µM; in the test on CCRF-CEM leukemia, over 25 µM; with HCT-15 colon, over 25 µM; in the test with NCI-H522 lung, over 25 µM. Further, the GI50 in the test with UO-31 renal was 12 µM; in the test with K-562 leukemia, over 25 µM; in the test on SNB-19 CNS it was over 23.6 µM; in the test with MOLT-4 leukemia it was over 23.6 µM. Besides, the TGI is over 25 µM with SK-MEL-28 melanoma; over 25 µM in the test with COLO 205 colon; over 24 µM in the test with A498 renal; over 25 µM with CCRF-CEM leukemia; over 25 µM with HCT-15 colon; over 25 µM with NCI-H522 lung. For the same compound, the TGI in the test on UO-31 renal, in the test on K-562 leukemia, in the test on SNB-19 CNS and in the test on MOLT-4 leukemia was over 25 µM in each case.

Consider `O=C1c2ccc3c4c(ccc(c24)C(=O)N1CCCCO)C(=O)N(CCCCO)C3=O`, for which the GI50 was 2.6 µM in the test on SK-MEL-28 melanoma; 0.888 µM with COLO 205 colon; 1.12 µM in the test with A498 renal; 2.74 µM in the test with CCRF-CEM leukemia; 1.55 µM with HCT-15 colon; 1.55 µM with NCI-H522 lung. For the same compound, the GI50 with UO-31 renal is 1.87 µM; in the test with K-562 leukemia, 2.54 µM; with SNB-19 CNS it was 2.34 µM; in the test with MOLT-4 leukemia, 1.92 µM. Moreover, the TGI in the test with SK-MEL-28 melanoma was 10.4 µM; in the test on COLO 205 colon, 2.5 µM; in the test on A498 renal it was 2.87 µM; in the test with CCRF-CEM leukemia, over 100 µM; in the test with HCT-15 colon, 10.5 µM; in the test with NCI-H522 lung, 5.73 µM. Further, the TGI was 7.65 µM in the test on UO-31 renal, over 100 µM in the test with K-562 leukemia, 10.5 µM in the test on SNB-19 CNS and 12.5 µM with MOLT-4 leukemia.

With `CC1=C(C(=S)Nc2ccc(Cl)c(C(=O)OC(C)C)c2)SCCO1`, the TGI worked out at 35.4 µM with SK-MEL-28 melanoma; 37.4 µM with COLO 205 colon; 30.7 µM in the test on A498 renal; 44 µM in the test on CCRF-CEM leukemia; 44.9 µM in the test with HCT-15 colon; 44.3 µM in the test with NCI-H522 lung. In addition, the TGI turned out to be 32.8 µM with UO-31 renal, 43.6 µM in the test on K-562 leukemia, 44.5 µM in the test with SNB-19 CNS and 46.6 µM with MOLT-4 leukemia.
